Values quoted from earlier work, collected in article PMC4460250, “Systems Pharmacology Dissecting Holistic Medicine for Treatment of Complex Diseases: An Example Using Cardiocerebrovascular Diseases Treated by TCM” (Evidence-based Complementary and Alternative Medicine : eCAM, 2015).
Like-named read-outs stand apart in the source and are kept apart here.

Settings: cited from earlier work

| Compound | HIA(Human Intestinal Absorption) (in vivo) | HIA(Human Intestinal Absorption) (human, PreHIA data set, value given as fraction) |
| --- | --- | --- |
| OC[C@H]1O[C@@H](O[C@@H]2[C@@H](CO)OC(O)(CO)[C@H]2O)[C@H](O)[C@@H](O)[C@H]1O (mixture of isomers) [Lactulose] | 0.01 | – |
| C#C[C@]1(OC(C)=O)CC[C@H]2[C@@H]3CCC4=CC(=NO)CC[C@@H]4[C@H]3CC[C@@]21CC (mixture of isomers) [Norgestimate] | 1 | – |
| CC(=O)Nc1ccc(O)cc1 [Acetaminophen] | 0.85 | – |
| CC(=O)Nc1ccccc1 [Acetanilide] | 1 | – |
| CC(=O)c1ccc(S(=O)(=O)NC(=O)NC2CCCCC2)cc1 [Acetohexamide] | 0.8 | – |
| Cc1cnc(C(=O)O)c[n+]1[O-] [Acipimox] | 0.95 | – |
| COc1cc(C)c(/C=C/C(C)=C/C=C/C(C)=C/C(=O)O)c(C)c1C [Acitretin] | 0.95 | – |
| Oc1ncnc2[nH]ncc12 [Allopurinol] | 0.8 | – |
| C=CCNc1nc(NCC=C)nc(N2CCN(C(c3ccc(F)cc3)c3ccc(F)cc3)CC2)n1 [Almitrine] | 0.9 | – |
| CN(C)CCc1c[nH]c2ccc(CS(=O)(=O)N3CCCC3)cc12 [Almotriptan] | 0.75 | – |
| NCC[C@H](O)C(=O)N[C@@H]1C[C@H](N)[C@@H](O[C@H]2O[C@H](CN)[C@@H](O)[C@H](O)[C@H]2O)[C@H](O)[C@H]1O[C@H]1O[C@H](CO)[C@@H](O)[C@H](N)[C@H]1O [Amikacin] | 0.01 | – |
| CN(C)CCC=C1c2ccccc2CCc2ccccc21 [Amitriptyline] | 0.95 | – |
| Nc1cc(-c2ccncc2)c[nH]c1=O [Amrinone] | 0.93 | – |
| O=C1CN2Cc3c(ccc(Cl)c3Cl)N=C2N1 [Anagrelide] | 0.7 | – |
| NCC[C@H](O)C(=O)N[C@@H]1C[C@H](N)[C@@H](O[C@H]2O[C@H](CN)CC[C@H]2N)[C@H](O)[C@H]1O[C@H]1O[C@H](CO)[C@@H](O)[C@H](N)[C@H]1O [Arbekacin] | 0.01 | – |
| CC(=O)Oc1ccccc1C(=O)O [Aspirin] | 0.82 | – |
| COc1ccc(CCN2CCC(Nc3nc4ccccc4n3Cc3ccc(F)cc3)CC2)cc1 [Astemizole] | 1 | – |
| CN1CCC(=C2c3ccccc3CCc3cccnc32)CC1 [Azatadine] | 0.9 | – |
| CN1CCCC(n2nc(Cc3ccc(Cl)cc3)c3ccccc3c2=O)CC1 (stereo not shown) [Azelastine] | 1 | – |
| CN1CCN(CCCCN2C(=O)CN(/N=C/c3ccc(-c4ccc(Cl)cc4)o3)C2=O)CC1 [Azimilide] | 1 | – |
| NS(=O)(=O)c1cc2c(cc1C(F)(F)F)NC(Cc1ccccc1)NS2(=O)=O (stereo not shown) [Bendroflumethiazide] | 1 | – |
| CCc1oc2ccccc2c1C(=O)c1cc(Br)c(O)c(Br)c1 [Benzbromarone] | 0.73 | – |
| CN(C)CCCOc1nn(Cc2ccccc2)c2ccccc12 [Benzydamine] | 0.87 | – |
| C[N+](C)(CCOc1ccccc1)Cc1ccccc1 [Bephenium] | 0.05 | – |
| CC(C)COCC(CN(Cc1ccccc1)c1ccccc1)N1CCCC1 (stereo not shown) [Bepridil] | 1 | – |
| CNCCc1ccccn1 [Betahistine] | 1 | – |

| Compound | HIA(Human Intestinal Absorption) (in vivo) | HIA(Human Intestinal Absorption) (human, PreHIA data set, value given as fraction) |
| --- | --- | --- |
| CC(C)NCC(O)COc1ccc(CCOCC2CC2)cc1 (stereo not shown) [Betaxolol] | 0.9 | – |
| CC(C[N+](C)(C)C)OC(N)=O (stereo not shown) [Bethanechol] | 0.05 | – |
| CC(C)(Oc1ccc(CCNC(=O)c2ccc(Cl)cc2)cc1)C(=O)O [Bezafibrate] | 1 | – |
| CC(O)(CS(=O)(=O)c1ccc(F)cc1)C(=O)Nc1ccc(C#N)c(C(F)(F)F)c1 (stereo not shown) [Bicalutamide] | 0.9 | – |
| CCCC1O[C@@H]2C[C@H]3[C@@H]4CCC5=CC(=O)C=C[C@]5(C)[C@H]4[C@@H](O)C[C@]3(C)[C@]2(C(=O)CO)O1 (stereo partly shown) [Budesonide] | 1 | – |
| CCCCCOC(=O)Nc1nc(=O)n([C@@H]2O[C@H](C)[C@@H](O)[C@H]2O)cc1F [Capecitabine] | 0.96 | – |
| NC(=O)N1c2ccccc2C=Cc2ccccc21 [Carbamazepine] | 1 | – |
| CCOC(=O)n1ccn(C)c1=S [Carbimazole] | 0.95 | – |
| O=NN(CCCl)C(=O)NCCCl [Carmustine] | 1 | – |
| CC1=C(C(=O)O)N2C(=O)[C@@H](NC(=O)[C@H](N)c3ccc(O)cc3)[C@H]2SC1 [Cefadroxil] | 1 | – |
| N[C@@H](C(=O)N[C@@H]1C(=O)N2C(C(=O)O)=C(CSc3c[nH]nn3)CS[C@H]12)c1ccc(O)cc1 [Cefatrizine] | 0.76 | – |
| CO[C@@]1(NC(=O)CSCC#N)C(=O)N2C(C(=O)O)=C(CSc3nnnn3C)CS[C@@H]21 [Cefmetazole] | 0.1 | – |
| CO/N=C(\C(=O)N[C@@H]1C(=O)N2C(C(=O)O)=C(COC(C)=O)CS[C@H]12)c1csc(N)n1 [Cefotaxime] | 0.05 | – |
| COCC1=C(C(=O)OC(C)OC(=O)OC(C)C)N2C(=O)[C@@H](NC(=O)/C(=N\OC)c3csc(N)n3)[C@H]2SC1 (stereo partly shown) [Cefpodoxime_proxetil] | 0.5 | – |
| CO/N=C(\C(=O)N[C@@H]1C(=O)N2C(C(=O)O)=CCS[C@H]12)c1csc(N)n1 [Ceftizoxime] | 0.72 | – |
| CO/N=C(\C(=O)N[C@@H]1C(=O)N2C(C(=O)O)=C(CSc3nc(=O)c(=O)[nH]n3C)CS[C@H]12)c1csc(N)n1 [Ceftriaxone] | 1 | – |
| CO/N=C(\C(=O)N[C@@H]1C(=O)N2C(C(=O)O)=C(COC(N)=O)CS[C@H]12)c1ccco1 [Cefuroxime] | 1 | – |
| CC1=C(C(=O)O)N2C(=O)[C@@H](NC(=O)[C@H](N)C3=CCC=CC3)[C@H]2SC1 [Cephradine] | 0.95 | – |
| [H]/N=C(\N/C(=N/[H])Nc1ccc(Cl)cc1)NC(C)C [Chlorguanide] | 0.85 | – |
| [H]/N=C(\N/C(=N/[H])NCCCCCCNC(=N)NC(=N)Nc1ccc(Cl)cc1)Nc1ccc(Cl)cc1 [Chlorhexidine] | 0.05 | – |
| CN(C)CCC(c1ccc(Cl)cc1)c1ccccn1 (stereo not shown) [Chlorpheniramine] | 0.8 | – |
| CN(C)CCCN1c2ccccc2Sc2ccc(Cl)cc21 [Chlorpromazine] | 0.98 | – |
| CCC#CC[C@H](C)[C@H](O)C#C[C@@H]1[C@H]2C/C(=C/COCC(=O)O)C[C@H]2C[C@H]1O [Cicaprost] | 1 | – |
| CCOC(=O)[C@H](CCc1ccccc1)N[C@H]1CCCN2CCC[C@@H](C(=O)O)N2C1=O [Cilazapril] | 0.59 | – |
| COc1ccc([C@]2(C#N)CC[C@@H](C(=O)O)CC2)cc1OC1CCCC1 [Cilomilast] | 1 | – |
| CN/C(=N/CCSCc1nc[nH]c1C)NC#N [Cimetidine] | 0.64 | – |

| Compound | HIA(Human Intestinal Absorption) (in vivo) | HIA(Human Intestinal Absorption) (human, PreHIA data set, value given as fraction) |
| --- | --- | --- |
| COc1cc(N)c(Cl)cc1C(=O)NC1CCN(CCCOc2ccc(F)cc2)CC1OC (stereo not shown) [Cisapride] | 1 | – |
| O=P(O)(O)C(Cl)(Cl)P(=O)(O)O [Clodronate] | 0.03 | – |
| CCOC(=O)C(C)(C)Oc1ccc(Cl)cc1 [Clofibrate] | 0.97 | – |
| Clc1cccc(Cl)c1N=C1NCCN1 [Clonidine] | 0.95 | – |
| OCCN1CCN(CCC=C2c3ccccc3Sc3ccc(Cl)cc32)CC1 [Clopenthixol] | 0.95 | – |
| C[C@]12C[C@H](O)[C@H]3[C@@H](CCC4=CC(=O)CC[C@@]43C)[C@@H]1CC[C@@H]2C(=O)CO [Corticosterone] | 1 | – |
| N[C@@H]1CON=C1O [Cycloserine] | 0.73 | – |
| CO[C@H]1C[C@H](O[C@H]2CC[C@]3(C=O)[C@H]4CC[C@]5(C)[C@@H](C6=CC(=O)OC6)CC[C@]5(O)[C@@H]4CC[C@]3(O)C2)O[C@H](C)[C@H]1O [Cymarin] | 0.47 | – |
| CC(=O)O[C@]1(C(C)=O)CC[C@H]2[C@@H]3C=C(Cl)C4=CC(=O)[C@@H]5C[C@@H]5[C@]4(C)[C@H]3CC[C@@]21C [Cyproterone_acetate] | 0.98 | – |
| O=C1CN(/N=C/c2ccc(-c3ccc([N+](=O)[O-])cc3)o2)C(O)=N1 [Dantrolene] | 0.8 | – |
| Nc1ccc(S(=O)(=O)c2ccc(N)cc2)cc1 [Dapsone] | – | 0.9 |
| CNCCCN1c2ccccc2CCc2ccccc21 [Desipramine] | 1 | – |
| CC(=O)Nc1c(I)c(NC(C)=O)c(I)c(C(=O)O)c1I [Diatrizoate] | 0.05 | – |
| CC1=NS(=O)(=O)c2cc(Cl)ccc2N1 [Diazoxide] | 0.9 | – |
| CC/C(=C(/CC)c1ccc(O)cc1)c1ccc(O)cc1 [Diethylstilbestrol] | 0.9 | – |
| O=C(O)c1cc(-c2ccc(F)cc2F)ccc1O [Diflunisal] | 0.9 | – |
| OCCN(CCO)c1nc(N2CCCCC2)c2nc(N(CCO)CCO)nc(N3CCCCC3)c2n1 [Dipyridamole] | 0.58 | – |
| CC(C)N(CCC(C(N)=O)(c1ccccc1)c1ccccn1)C(C)C (stereo not shown) [Disopyramide] | 0.95 | – |
| CN(C)CC/C=C1\c2ccccc2CSc2ccccc21 [Dothiepin] | 0.95 | – |
| COc1cccc2c1C(=O)c1c(O)c3c(c(O)c1C2=O)C[C@@](O)(C(=O)CO)C[C@@H]3O[C@H]1C[C@H](N)[C@H](O)[C@H](C)O1 [Doxorubicin] | 0.12 | – |
| CCOC(=O)[C@H](CCc1ccccc1)N[C@@H](C)C(=O)N1CCC[C@H]1C(=O)O [Enalapril] | 0.66 | – |
| CSc1ccc(C(=O)c2[nH]c(=O)[nH]c2C)cc1 [Enoximone] | 0.8 | – |
| CC[C@H]1OC(=O)[C@H](C)[C@@H](O[C@H]2C[C@@](C)(OC)[C@@H](O)[C@H](C)O2)[C@H](C)[C@@H](O[C@@H]2O[C@H](C)C[C@H](N(C)C)[C@H]2O)[C@](C)(O)C[C@@H](C)C(=O)[C@H](C)[C@@H](O)[C@]1(C)O [Erythromycin] | 0.35 | – |
| CCc1cc(C(N)=S)ccn1 [Ethionamide] | 0.9 | – |
